Values quoted from earlier work, collected in patent publication US20130259835A1, “BIFIDOBACTERIUM ADOLESCENTIS SPM0212 HAVING ANTIVIRAL ACTIVITY FOR HEPATITIS B VIRUS, AND PHARMACEUTICAL COMPOSITION FOR PREVENTING AND TREATING HEPATITIS B COMPRISING THEREOF” (SAHMYOOK UNIVERSITY INDUSTRY-ACADEMIC COOPERATION, priority 2011, published 2013).

Tested on: hepatitis B virus
Settings: administered 3 times a week for at least 3 months; average; cited from earlier work

interferon-α
patients with treatment effect of inhibiting the virus replication: 20%
